# Laboratory results taken from ChEMBL document CHEMBL4033723, “Succinamide derivatives of melampomagnolide B and their anti-cancer activities” (2017).
# Tests used:
# Type in all cases: functional
# [1] = test system: CAKI-1; experiment: Growth inhibition of human Caki1 cells after 48 hrs by sulforhodamine B assay; settings: CAKI-1, 48 h
# [2] = test system: KM12; experiment: Growth inhibition of human KM12 cells after 48 hrs by sulforhodamine B assay; settings: KM12, 48 h
# [3] = test system: A549; experiment: Growth inhibition of human A549/ATCC cells after 48 hrs by sulforhodamine B assay; settings: A549, 48 h
# [4] = test system: PC-3; experiment: Growth inhibition of human PC3 cells after 48 hrs by sulforhodamine B assay; settings: PC-3, 48 h
# [5] = test system: SF-539; experiment: Growth inhibition of human SF539 cells after 48 hrs by sulforhodamine B assay; settings: SF-539, 48 h
# [6] = test system: NCI/ADR-RES; experiment: Growth inhibition of human NCI-ADR-RES cells after 48 hrs by sulforhodamine B assay
# [7] = test system: SK-MEL-28; experiment: Growth inhibition of human SK-MEL-28 cells after 48 hrs by sulforhodamine B assay; settings: SK-MEL-28, 48 h
# [8] = test system: T47D; experiment: Growth inhibition of human T47D cells after 48 hrs by sulforhodamine B assay
# [9] = test system: SF-295; experiment: Growth inhibition of human SF295 cells after 48 hrs by sulforhodamine B assay; settings: SF-295, 48 h
# [10] = test system: BT-549; experiment: Growth inhibition of human BT549 cells after 48 hrs by sulforhodamine B assay; settings: BT-549, 48 h
# [11] = test system: TK-10; experiment: Growth inhibition of human TK10 cells after 48 hrs by sulforhodamine B assay; settings: TK-10, 48 h
# [12] = test system: NCI-H522; experiment: Growth inhibition of human NCI-H522 cells after 48 hrs by sulforhodamine B assay; settings: NCI-H522, 48 h
# [13] = test system: A498; experiment: Growth inhibition of human A498 cells after 48 hrs by sulforhodamine B assay; settings: A498, 48 h
# [14] = test system: UACC-257; experiment: Growth inhibition of human UACC257 cells after 48 hrs by sulforhodamine B assay; settings: UACC-257, 48 h
# [15] = Growth inhibition of human M9-ENL1 cells after 24 hrs by trypan blue assay; settings: M9-ENL1, 24 h
# [16] = test system: HOP-92; experiment: Growth inhibition of human HOP92 cells after 48 hrs by sulforhodamine B assay; settings: HOP-92, 48 h
# [17] = test system: HCT-15; experiment: Growth inhibition of human HCT15 cells after 48 hrs by sulforhodamine B assay; settings: HCT-15, 48 h
# [18] = test system: U-251; experiment: Growth inhibition of human U251 cells after 48 hrs by sulforhodamine B assay; settings: U-251, 48 h
# [19] = test system: SNB-75; experiment: Growth inhibition of human SNB75 cells after 48 hrs by sulforhodamine B assay; settings: SNB-75, 48 h
# [20] = test system: COLO 205; experiment: Growth inhibition of human COLO205 cells after 48 hrs by sulforhodamine B assay; settings: COLO 205, 48 h
# [21] = test system: ACHN; experiment: Growth inhibition of human ACHN cells after 48 hrs by sulforhodamine B assay
# [22] = test system: CCRF-CEM; experiment: Growth inhibition of human CCRF-CEM cells after 48 hrs by sulforhodamine B assay
# [23] = test system: UO-31; experiment: Growth inhibition of human UO31 cells after 48 hrs by sulforhodamine B assay; settings: UO-31, 48 h
# [24] = Induction of apoptosis in human M9-ENL1 cells assessed as cell death after 24 hrs by Annexin V/PI or 7-AAD staining based flow cytometry; settings: M9-ENL1, 24 h, read-out: LC50 (the source's name)
# [25] = test system: Malme-3M; experiment: Growth inhibition of human MALME-3M cells after 48 hrs by sulforhodamine B assay
# [26] = test system: 786-0; experiment: Growth inhibition of human 786-0 cells after 48 hrs by sulforhodamine B assay; settings: 786-0, 48 h
# [27] = test system: RXF 393; experiment: Growth inhibition of human RXF393 cells after 48 hrs by sulforhodamine B assay; settings: RXF 393, 48 h
# [28] = test system: MDA-MB-435; experiment: Growth inhibition of human MDA-MB-435 cells after 48 hrs by sulforhodamine B assay; settings: MDA-MB-435, 48 h
# [29] = test system: LOX IMVI; experiment: Growth inhibition of human LOXIMVI cells after 48 hrs by sulforhodamine B assay
# [30] = test system: SR; experiment: Growth inhibition of human SR cells after 48 hrs by sulforhodamine B assay
# [31] = test system: UACC-62; experiment: Growth inhibition of human UACC62 cells after 48 hrs by sulforhodamine B assay; settings: UACC-62, 48 h
# [32] = test system: SK-MEL-5; experiment: Growth inhibition of human SK-MEL-5 cells after 48 hrs by sulforhodamine B assay; settings: SK-MEL-5, 48 h
# [33] = test system: OVCAR-8; experiment: Growth inhibition of human OVCAR8 cells after 48 hrs by sulforhodamine B assay; settings: OVCAR-8, 48 h
# [34] = test system: SNB-19; experiment: Growth inhibition of human SNB19 cells after 48 hrs by sulforhodamine B assay; settings: SNB-19, 48 h
# [35] = test system: K562; experiment: Growth inhibition of human K562 cells after 48 hrs by sulforhodamine B assay; settings: K562, 48 h
# [36] = test system: OVCAR-5; experiment: Growth inhibition of human OVCAR5 cells after 48 hrs by sulforhodamine B assay; settings: OVCAR-5, 48 h
# [37] = test system: OVCAR-4; experiment: Growth inhibition of human OVCAR4 cells after 48 hrs by sulforhodamine B assay; settings: OVCAR-4, 48 h
# [38] = test system: NCI-H322M; experiment: Growth inhibition of human NCI-H322M cells after 48 hrs by sulforhodamine B assay
# [39] = test system: DU-145; experiment: Growth inhibition of human DU145 cells after 48 hrs by sulforhodamine B assay; settings: DU-145, 48 h
# [40] = test system: HCT-116; experiment: Growth inhibition of human HCT116 cells after 48 hrs by sulforhodamine B assay; settings: HCT-116, 48 h
# [41] = test system: MCF7; experiment: Growth inhibition of human MCF7 cells after 48 hrs by sulforhodamine B assay; settings: MCF7, 48 h
# [42] = test system: NCI-H226; experiment: Growth inhibition of human NCI-H226 cells after 48 hrs by sulforhodamine B assay; settings: NCI-H226, 48 h
# [43] = test system: SW-620; experiment: Growth inhibition of human SW620 cells after 48 hrs by sulforhodamine B assay; settings: SW-620, 48 h
# [44] = test system: SK-OV-3; experiment: Growth inhibition of human SKOV3 cells after 48 hrs by sulforhodamine B assay; settings: SK-OV-3, 48 h
# [45] = test system: MOLT-4; experiment: Growth inhibition of human MOLT4 cells after 48 hrs by sulforhodamine B assay; settings: MOLT-4, 48 h
# [46] = test system: NCI-H23; experiment: Growth inhibition of human NCI-H23 cells after 48 hrs by sulforhodamine B assay; settings: NCI-H23, 48 h
# [47] = test system: SF-268; experiment: Growth inhibition of human SF268 cells after 48 hrs by sulforhodamine B assay; settings: SF-268, 48 h
# [48] = test system: MDA-MB-231; experiment: Growth inhibition of human MDA-MB-231 cells after 48 hrs by sulforhodamine B assay; settings: MDA-MB-231, 48 h
# [49] = test system: SN12C; experiment: Growth inhibition of human SN12C cells after 48 hrs by sulforhodamine B assay
# [50] = test system: SK-MEL-2; experiment: Growth inhibition of human SK-MEL-2 cells after 48 hrs by sulforhodamine B assay; settings: SK-MEL-2, 48 h
# [51] = test system: RPMI-8226; experiment: Growth inhibition of human RPMI8226 cells after 48 hrs by sulforhodamine B assay; settings: RPMI-8226, 48 h
# [52] = test system: M14; experiment: Growth inhibition of human M14 cells after 48 hrs by sulforhodamine B assay; settings: M14, 48 h
# [53] = test system: OVCAR-3; experiment: Growth inhibition of human OVCAR3 cells after 48 hrs by sulforhodamine B assay; settings: OVCAR-3, 48 h
# [54] = test system: HT-29; experiment: Growth inhibition of human HT-29 cells after 48 hrs by sulforhodamine B assay; settings: HT-29, 48 h
# [55] = test system: MDA-MB-468; experiment: Growth inhibition of human MDA-MB-468 cells after 48 hrs by sulforhodamine B assay; settings: MDA-MB-468, 48 h
# [56] = test system: HCC 2998; experiment: Growth inhibition of human HCC2998 cells after 48 hrs by sulforhodamine B assay; settings: HCC 2998, 48 h
# [57] = test system: NCI-H460; experiment: Growth inhibition of human NCI-H460 cells after 48 hrs by sulforhodamine B assay; settings: NCI-H460, 48 h
# [58] = test system: HL-60(TB); experiment: Growth inhibition of human HL-60(TB) cells after 48 hrs by sulforhodamine B assay; settings: HL-60, 48 h
# [59] = test system: Hs-578T; experiment: Growth inhibition of human Hs 578T cells after 48 hrs by sulforhodamine B assay
structure (smiles),measurement,setting,value
C=C1C(=O)O[C@H]2[C@H]1CC/C(COC(=O)CCC(=O)NCCCCCCCCNC(=O)CCC(=O)OC/C1=C/CC[C@@]3(C)O[C@H]3[C@H]3OC(=O)C(=C)[C@@H]3CC1)=C\CC[C@@]1(C)O[C@@H]21,GI50,[1],12.7 µM
same,GI50,[2],9.46 µM
same,GI50,[3],18.5 µM
same,GI50,[4],3.64 µM
same,GI50,[5],2.43 µM
same,GI50,[6],33.5 µM
same,GI50,[7],1.65 µM
same,GI50,[8],1.51 µM
same,GI50,[9],15.1 µM
same,GI50,[10],1.23 µM
same,GI50,[11],20.8 µM
same,GI50,[12],0.48 µM
same,GI50,[13],6.72 µM
same,GI50,[14],1.76 µM
same,GI50,[15],1 µM
same,GI50,[16],1.58 µM
same,GI50,[17],3.6 µM
same,GI50,[18],3.03 µM
same,GI50,[19],2.02 µM
same,GI50,[20],1.35 µM
same,GI50,[21],3.13 µM
same,GI50,[22],0.32 µM
same,GI50,[23],10.9 µM
same,CC50,[24],11 µM
same,GI50,[25],2.04 µM
same,GI50,[26],1.62 µM
same,GI50,[27],0.85 µM
same,GI50,[28],1.8 µM
same,GI50,[29],1.37 µM
same,GI50,[30],0.41 µM
same,GI50,[31],1.97 µM
same,GI50,[32],3.13 µM
same,GI50,[33],2.9 µM
same,GI50,[34],4.15 µM
same,GI50,[35],0.97 µM
same,GI50,[36],1.82 µM
same,GI50,[37],1.64 µM
same,GI50,[38],16.3 µM
same,GI50,[39],1.92 µM
same,GI50,[40],1.54 µM
same,GI50,[41],0.77 µM
same,GI50,[42],2.06 µM
same,GI50,[43],1.22 µM
same,GI50,[44],6.45 µM
same,GI50,[45],2.11 µM
same,GI50,[46],2.99 µM
same,GI50,[47],3.34 µM
same,GI50,[48],1.97 µM
same,GI50,[49],3.74 µM
same,GI50,[50],2.25 µM
same,GI50,[51],1.67 µM
same,GI50,[52],1.79 µM
same,GI50,[53],1.5 µM
same,GI50,[54],1.64 µM
same,GI50,[55],1.33 µM
same,GI50,[56],4.12 µM
same,GI50,[57],5 µM
same,GI50,[58],0.63 µM
same,GI50,[59],3.88 µM
C=C1C(=O)O[C@H]2[C@H]1CC/C(COC(=O)CCC(=O)NCCCCCCCCCNC(=O)CCC(=O)OC/C1=C/CC[C@@]3(C)O[C@H]3[C@H]3OC(=O)C(=C)[C@@H]3CC1)=C\CC[C@@]1(C)O[C@@H]21,GI50,[1],10.5 µM
same,GI50,[2],4.6 µM
same,GI50,[3],13.8 µM
same,GI50,[4],2.53 µM
same,GI50,[5],1.85 µM
same,GI50,[6],26.7 µM
same,GI50,[7],1.47 µM
same,GI50,[8],1.49 µM
same,GI50,[9],7.68 µM
same,GI50,[10],0.66 µM
same,GI50,[11],1.78 µM
same,GI50,[12],0.42 µM
same,GI50,[13],2.72 µM
same,GI50,[14],2.06 µM
same,GI50,[15],0.44 µM
same,GI50,[16],1.4 µM
same,GI50,[17],2.63 µM
same,GI50,[18],3.01 µM
same,GI50,[19],1.47 µM
same,GI50,[20],1.22 µM
same,GI50,[21],2.1 µM
same,GI50,[22],0.28 µM
same,GI50,[23],3.9 µM
same,CC50,[24],6.5 µM
same,GI50,[25],1.94 µM
same,GI50,[26],1.49 µM
same,GI50,[27],1.01 µM
same,GI50,[28],1.63 µM
same,GI50,[29],0.37 µM
same,GI50,[30],0.33 µM
same,GI50,[31],1.69 µM
same,GI50,[32],1.88 µM
same,GI50,[33],3.24 µM
same,GI50,[34],3.38 µM
same,GI50,[35],0.45 µM
same,GI50,[36],1.7 µM
same,GI50,[37],1.48 µM
same,GI50,[38],16.3 µM
same,GI50,[39],1.75 µM
same,GI50,[40],0.86 µM
same,GI50,[41],0.42 µM
same,GI50,[42],1.9 µM
same,GI50,[43],0.54 µM
same,GI50,[44],5.8 µM
same,GI50,[45],0.64 µM
same,GI50,[46],2.23 µM
same,GI50,[47],2.92 µM
same,GI50,[48],1.58 µM
same,GI50,[49],2.69 µM
same,GI50,[50],2.12 µM
same,GI50,[51],0.5 µM
same,GI50,[52],1.65 µM
same,GI50,[53],1.29 µM
same,GI50,[54],1.33 µM
same,GI50,[55],0.98 µM
same,GI50,[56],2.25 µM
same,GI50,[57],2.18 µM
same,GI50,[58],0.44 µM
same,GI50,[59],2.99 µM
